{
  "source": "patent EP0335637A2",
  "about": "“Nerve growth factor peptides” (THE REGENTS OF THE UNIVERSITY OF CALIFORNIA, priority 1988, dated 1989)",
  "key": {"[1]": {"test": "Resistance to proteolysis during cell culture (HPLC recovery)", "type": "in vitro ADME", "settings": "after 24 hr in culture; 2.0 µmole/ml peptide, 100 pg/ml NGF and cells", "protocol": "The resistance of peptide C5 to proteolytic cleavage during cell culture was assessed. Quadruplicate wells were prepared each containing 2.Oµ mole/ml of peptide in culture medium, 100 pg/ml NGF and cells as described above. After 24 hr in culture, 320 ul (4 wells x 80 ul) of culture medium were collected. Fresh culture medium containing 2.0 µmole/ml of peptide was also prepared. Both samples of peptide-containing medium were filtered through a Centricon membrane (Amicon, Bedford) with a molecular weight cutoff of 10,000. 250 µl of filtrate was loaded onto a C18 uBondapak analytic HPLC column and run under the same conditions described above for peptide purification. The quantity of peptides in fresh compared to post-culture medium was determined by integration of their absorbance peaks. After 24 hr in culture, more than 80-85% of the initial quantity of peptide C5 was recovered."}, "[2]": {"tested_on": "embryologic day 10 dorsal root ganglia neurons", "test": "NGF-independent neurite outgrowth in response to CNTF (nonspecific toxicity check)", "type": "cell-based, chick", "settings": "C5 up to 2.6p moles/ml (Figure 3)", "protocol": "Potential nonspecific toxicity of peptide C5 (KGKE) was investigated with embryologic day 10 dorsal root ganglia neurons which also extend neurites in the presence of ciliary neurotrophic factor (CNTF). The effect of peptide C5 on NGF-independent neurite outgrowth was assessed."}},
  "note": "Where a SMILES comes first, the peptide text is derived from it.",
  "data": [
    {"smiles": "NCCCC[C@H](NC(=O)CNC(=O)[C@@H](N)CCCCN)C(=O)N[C@@H](CCC(=O)O)C(N)=O", "note": "[C5, KGKE] (H-KGKE-NH2)", "values": [
      {"measurement": "initial quantity of peptide recovered", "setting": "[1]", "result": "80-85%"},
      {"measurement": "effect on number of neurons bearing neurites in response to CNTF", "setting": "[2]", "result": "no detectable effect"}
    ]}
  ]
}
